Test results taken from patent publication US12329745B2, “Methods and compositions for treating glucocorticoid excess” (Sparrow Pharmaceuticals, Inc., priority 2022, dated 2025).
Like-named read-outs stand apart in the source and are kept apart here.

Columns and labels:
adipose HSD-1 = molecular target: T1, adipose HSD-1 (Homo sapiens, UniProt P28845); assay: Adipose HSD-1 inhibition by microdialysis (D8 cortisone to D8 cortisol) in subjects with type 2 diabetes given SPI-62; type: in vivo
T1 construct: infused continuously into subcutaneous abdominal adipose tissue via microdialysis catheters; from tissue; host or cells: human subcutaneous abdominal adipose tissue, in vivo
T1 sequence (P28845 whole entry, the tested form may be a part): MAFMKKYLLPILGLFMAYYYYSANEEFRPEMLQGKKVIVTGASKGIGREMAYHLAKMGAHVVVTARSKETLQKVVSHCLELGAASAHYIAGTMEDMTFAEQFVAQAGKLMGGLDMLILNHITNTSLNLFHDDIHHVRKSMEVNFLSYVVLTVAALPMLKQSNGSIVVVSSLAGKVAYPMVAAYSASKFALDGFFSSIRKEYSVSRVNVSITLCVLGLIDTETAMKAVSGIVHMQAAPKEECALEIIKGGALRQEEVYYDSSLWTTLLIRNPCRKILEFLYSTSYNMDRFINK
Method: Male and non-menstruating female subjects with type 2 diabetes aged between 18 and 65 years with a body mass index between 30.0 and 45.0 were administered SPI-62 daily for 14 days. […] Percent adipose HSD-1 inhibition was calculated as: 100*(1-(MPFt/MPFbaseline).
The time (t) of the sample was considered to be the midpoint of the collection interval. […] Data shown are the median inhibition observed in two subjects for whom the SPI-62 daily dose was 6 mg.
Male and non-menstruating female subjects with type 2 diabetes aged between 18 and 65 years with a body mass index between 30.0 and 45.0 were administered SPI-62 daily for 14 days. In addition to the six subjects described in Example 1 who received SPI-62 1, 3, or 6 mg for 14 days, six additional subjects received SPI-62 1, 2, 3, or 10 mg for 5 to 8 days. […] Percent adipose HSD-1 inhibition was calculated as: 100*(1-(MPFt/MPFbaseline). The time (t) of the sample was considered to be the midpoint of the collection interval. A higher sensitivity assay for D8 cortisol was used to enable quantitation of adipose HSD-1 inhibition of >95%.

[1] = Human plasma pharmacokinetics of SPI-62; type: in vivo; conditions: for Cmax: human, plasma, oral
Method: The single- and multiple-dose pharmacokinetics of SPI-62 were well-characterized by a two-compartment TMDD population pharmacokinetics model with 3 transit absorption compartments and an estimated target capacity of ˜2.5 mg of SPI-62 which comports well with the dose range in which pharmacokinetic nonlinearity is prominent.

purified human HSD-1 = purified human HSD-1 (Homo sapiens, UniProt P28845); assay: In vitro inhibition of purified human HSD-1; type: biochemical
Chain of purified human HSD-1 (P28845 whole entry): as the sequence (P28845 whole entry, the tested form may be a part) above

[2] = Clinical effective daily dose and side effects of HSD-1 inhibitors; conditions: human, in vivo
Method: Pseudo-irreversible HSD-1 inhibitors might have additional advantages over other HSD-1 inhibitors. For example, with durable pharmacologic effect, pseudo-irreversible HSD-1 inhibitors are more amenable to less than daily dosing including depot formulations and less likely to show decreased efficacy based on imperfect patient compliance. Additionally, HSD-1 in the human body appears to become completely occupied with approximately 3 mg of a potent small molecule inhibitor. Because pseudo-irreversible inhibitors, once bound, distribute only slowly off HSD-1 a low chronic dose is possible. Several pseudo-irreversible HSD-1 inhibitors, such as SPI-62, ABT-384, MK-0736, and MK-0916, have effective dose ranges below 10 mg daily.

liver HSD-1 = liver HSD-1 (Homo sapiens, UniProt P28845); assay: Urinary HSD-1 ratio (tetrahydrocortisol+allotetrahydrocortisol)/tetrahydrocortisone; type: in vivo; design: from tissue; host or cells: human liver in vivo, read through urinary steroid metabolites; conditions: for mean urinary HSD-1 ratio, reduction from baseline: 0.7 mg daily
Chain of liver HSD-1 (P28845 whole entry): as the sequence (P28845 whole entry, the tested form may be a part) above
Excerpt: The tetrahydro metabolites are rapidly and extensively excreted in urine. […] Continued adrenal synthesis provides a circulating pool of cortisol, the free fraction of which (˜5%) enters cells. That prevents the urinary HSD-1 ratio from dropping below approximately 0.1.

## Cn1c(-c2ccc(C(N)=O)cc2F)nnc1C(C)(C)Oc1c(F)cc(Cl)cc1F [SPI-62, 4-(5-(2-(4-chloro-2,6-difluorophenoxy)propan-2-yl)-4-methyl-4H-1,2,4-triazol-3-yl)-3-fluorobenzamide]
Adipose HSD-1; SPI-62 6 mg daily
  adipose HSD-1 inhibition, 2nd v 14th dose intervals: almost identical
Adipose HSD-1; SPI-62 6 mg daily, median of two subjects, FIG. 1
  time after a single dose at which adipose HSD-1 inhibition was detected: 2 to 4 h
Adipose HSD-1; SPI-62 6 mg daily, quantitation limited to ~90-95%
  adipose HSD-1 inhibition during the 2nd dose interval: maximal measurable levels
Adipose HSD-1; SPI-62 1, 2, 3, or 10 mg
  adipose HSD-1 inhibition after multiple doses: maximum measurable
Adipose HSD-1; human, in vivo
  tachyphylaxis of human adipose HSD-1 inhibition with multiple dosing: does not show
Adipose HSD-1; lower single SPI-62 doses
  adipose HSD-1 inhibition after lower single doses: no or limited
[1]; 0.2 mg daily for 14 days
  unbound concentration corresponding to Cmax: < 0.25 nM
[1]; doses of 0.2 to 50 mg
  plasma levels after 14 days of dosing, dose proportionality: approximately dose-proportional
[1]; 0.2 mg, 0.2 mg daily for 14 days, last dosing day, read-out: mean maximum plasma drug concentration (Cmax)
  Cmax: < 1 ng/mL
[1]; 1 mg, single dose 1 mg, read-out: mean Cmax
  Cmax: < 0.05 ng/mL
[1]; multiple doses 0.2 to 50 mg, read-out: Cmax means
  Cmax: 1 to 835 ng/mL
[1]; single doses of 6 to 60 mg, read-out: Cmax means
  Cmax: 28 to 595 ng/mL
[1]; single 1 mg dose
  plasma drug levels (all below the LLOQ): < 0.1 ng/mL
[1]; single dose 1 mg
  unbound concentration corresponding to Cmax: < 0.012 nM
[1]; single doses, 0.7 to 3 mg much lower dose-normalized levels
  plasma exposures after single doses, dose proportionality: substantial non-linearity
[1]; two-compartment TMDD population pharmacokinetics model
  estimated target capacity: ~2.5 mg
Purified human HSD-1
  IC50: 0.017 µM
  Ki: 0.0053 µM
[2]
  effective dose range: below 10 mg daily
Liver HSD-1; 0.2 mg daily for 14 days, last dosing day
  mean reduction of the urinary HSD-1 ratio from baseline: 87%
Liver HSD-1; healthy adults
  time after the last dose with incomplete return of urinary HSD-1 ratio to baseline: more than 2 weeks
Liver HSD-1; healthy adults, 16±2 days after cessation
  mean urinary HSD-1 ratio, reduction from baseline: 55%
Liver HSD-1; healthy adults, last dosing day
  mean urinary HSD-1 ratio, reduction from baseline: 84%
Liver HSD-1; patients, 10 mg daily for 6 weeks, 2 weeks after the last dose
  mean urinary HSD-1 ratio: 0.33
Liver HSD-1; patients, 10 mg daily for 6 weeks, last dosing day
  mean urinary HSD-1 ratio: 0.13
Liver HSD-1; single 1 mg dose, urine 0 to 6 hours post-dose
  mean urinary HSD-1 ratio: 0.694
Liver HSD-1; single 1 mg dose, urine 6 to 12 hours post-dose
  mean urinary HSD-1 ratio: 0.471
Liver HSD-1; single 1 mg dose, urine 12 to 24 hours post-dose
  mean urinary HSD-1 ratio: 0.472
Liver HSD-1; single 1 mg dose, urine 24 to 48 hours post-dose
  mean urinary HSD-1 ratio: 0.522
Liver HSD-1; single 1 mg dose, urine 48 to 72 hours post-dose
  mean urinary HSD-1 ratio: 0.618
Liver HSD-1; single dose 1 mg
  mean difference v placebo of the urinary HSD-1 ratio: 51%
